{"source": "patent US20210178012A1", "about": "“FOAM WOUND DRESSING COMPRISING AN ANTISEPTIC” (Coloplast A/S, priority 2018, published 2021)", "key": {"[1]": {"assay": "Previous zone of inhibition studies (not shown)", "format": "cell-based", "conditions": "pure octenidine impregnated into foam without surfactants"}, "[2]": {"assay": "Octenidine in foam, no surfactant: extraction from impregnated hydrophilic polyurethane foam discs", "format": "physicochemical", "conditions": "plain foam, 24 h extraction", "procedure": "Discs of hydrophilic polyurethane foam were impregnated by applying a known volume of octenidine-containing solution to the surface of the foam and letting it soak into the foam matrix in a liquid:foam ratio which allowed the foam to be saturated with liquid. Afterwards, the impregnated foam was dried at RT overnight. The dried foam disc was immersed in the extraction media for 24 h and the extracted octenidine concentration was determined by UV at 285 nm"}, "[3]": {"conditions": "0.1 w % OCT in impregnation solution"}, "[4]": {"conditions": "0.5 w % OCT in impregnation solution"}, "[5]": {"conditions": "1.0 w % OCT in impregnation solution"}}, "data": [{"smiles": "CCCCCCCCN=c1ccn(CCCCCCCCCCn2ccc(=NCCCCCCCC)cc2)cc1", "note": "[Octenidine, octenidine]", "values": [{"measurement": "zones in a zone of inhibition study", "setting": "[1]", "result": "small or no zones"}, {"measurement": "Release % phosphate buffer (23 mM)", "setting": "[2]; [3]", "result": 7, "unit": "%"}, {"measurement": "Release % water", "setting": "[2]; [3]", "result": 5, "unit": "%"}, {"measurement": "Release % phosphate buffer (23 mM)", "setting": "[2]; [4]", "result": 13, "unit": "%"}, {"measurement": "Release % water", "setting": "[2]; [4]", "result": 1.5, "unit": "%"}, {"measurement": "Release % phosphate buffer (23 mM)", "setting": "[2]; [5]", "result": 20, "unit": "%"}, {"measurement": "Release % water", "setting": "[2]; [5]", "result": 1.5, "unit": "%"}]}]}
